Holding throughout (assay): area under concentration-response curve (viability) (AUC (a.u.)); higher = less active
What all share (conditions): 48 h

The subject of experiment [1] is CU-ACC1. Put shortly:
(§1)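 Library compounds were tested at 11 concentrations against three adrenocortical carcinoma cell lines in 1,536-well plates. CellTiter-Glo luminescence was read after 48 h and normalised per plate to vehicle and empty-well controls. Only inhibitory or non-responding curve classes from fitted concentration-response curves contributed AC50 and area under the curve.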

Experiment [2] deals with CU-ACC2. The essentials: as §1
Experiment [3] has as its system NCI-H295R. The essentials: as §1

The values that follow come from the supplement of paper PMC10949913.

For the molecule `CC1SC/2=C(C(O)=O)/C(=O)C3=CC(=C(C=C3N12)N4CCN(CC4)C\C5=C(C)\OC(=O)O5)F` (configuration not stated), the “area under concentration-response curve” value in experiment [1] was found to be 586; in experiment [2] it was 612; in experiment [3] it was 565.
Consider `C[C@H]1COC/2=C1/C(=O)C(=O)C3=C4CCCC(C)(C)C4=CC=C23`, for which the figures for the “area under concentration-response curve” value in experiment [1], in experiment [2] and in experiment [3] were 525, 601 and 540, respectively.
In the case of `COc1cc2cc(c1Cl)N(C)C(=O)C[C@H](OC(=O)C(C)C)[C@]1(C)O[C@@H]1[C@H](C)[C@@H]1C[C@@](O)(NC(=O)O1)[C@H](OC)/C=C/C=C(\C)C2`, the “area under concentration-response curve” value in experiment [1] amounted to 505; in experiment [2], 440; in experiment [3] it was 346.
In the case of `C=C[C@H]1CN2CC[C@H]1C[C@H]2[C@H](O)c1ccnc2ccc(OC)cc12`, the “area under concentration-response curve” value in experiment [1] was determined as 501; in experiment [2], 602; in experiment [3], 521.
With `N#Cc1ccc(Cn2cncc2CN2CCN(c3cccc(Cl)c3)C(=O)C2)cc1`, the figures for the “area under concentration-response curve” value in experiment [1], in experiment [2] and in experiment [3] were 520, 578 and 514, respectively.
For `C\C1=C(/C)C(=O)\C(=C(\C)C1=O)C(CCCCCC(O)=O)C2=CC=CC=C2` (configuration not stated), the entries for the “area under concentration-response curve” value in experiment [1], in experiment [2] and in experiment [3] were 545, 613 and 550, respectively.
In the case of `COC(=O)Nc1nc2cc(C(=O)c3cccs3)ccc2[nH]1`, the “area under concentration-response curve” value in experiment [1] was 496; in experiment [2] it was 516; in experiment [3], 382.
In the case of `CN(C)[S+](=O)([O-])c1ccc2c(c1)C(=Cc1cc3c([nH]1)CCCC3)C(=O)N2`, the “area under concentration-response curve” value in experiment [1] amounted to 594; in experiment [2] it was 655; in experiment [3] it was 576.
Turning to `N=C(N)NC(=O)c1nc(Cl)c(N)nc1N`, the “area under concentration-response curve” value in experiment [1] worked out at 455; in experiment [2], 658; in experiment [3] it was 615.
On to `OCCn1cc(-c2cnc3nnn(Cc4ccc5ncccc5c4)c3n2)cn1`, for which the “area under concentration-response curve” value in experiment [1] came out at 497; in experiment [2] it was 600; in experiment [3], 543.
The corresponding values for `C[N]1C=C(C2=C1C=CC=C2)\C3=C(\C(=O)NC3=O)C4=C5CC(CN)CC[N]5C6=C4C=CC=C6` (configuration not stated) are 517, 620 and 559.
Regarding `Cc1cc(O)c2c(c1)C(=O)c1cc(O)cc(O)c1C2=O`, the “area under concentration-response curve” value came out at 471 in experiment [1], 521 in experiment [2] and 498 in experiment [3].
The corresponding values for `CCCN[S+](=O)([O-])Nc1ncnc(OCCOc2ncc(Br)cn2)c1-c1ccc(Br)cc1` are 381, 567 and 518.
Take `CCCCn1c(=O)n(Cc2ccccc2F)c(=O)c2nc(Cc3ccc(NC(C)=O)cc3)[nH]c21`: the “area under concentration-response curve” value in experiment [1] turned out to be 491; in experiment [2], 543; in experiment [3], 531.
As to `O=C(O)CNC(=O)c1nc(Cl)c2ccccc2c1O`, the results for the “area under concentration-response curve” value in experiment [1], in experiment [2] and in experiment [3] were 498, 604 and 529, respectively.
The corresponding values for `C[C@H]1O[C@H](O[C@H]2[C@H](O)[C@@H](O)[C@@H](O[C@H]3[C@H](O)[C@@H](O)C(O)O[C@@H]3CO)O[C@@H]2CO)[C@H](O)[C@@H](O)[C@@H]1N[C@H]1C=C(CO)[C@@H](O)[C@H](O)[C@H]1O` (some centres not stated) are 414, 482 and 447.
Turning to `CCCn1c(=O)c2[nH]c(-c3cnn(Cc4cccc(C(F)(F)F)c4)c3)nc2n(CC)c1=O`, the “area under concentration-response curve” value in experiment [1] is 509; in experiment [2], 633; in experiment [3], 584.
For `NCCCCCC(=O)O`, the “area under concentration-response curve” value in experiment [1] came to 509; in experiment [2] it was 585; in experiment [3], 540.
`COC1=C(F)C=C\2C(=C1)\N=C/3NNC(=C3\N=C2C4=CC=CC=C4Cl)/C`: the “area under concentration-response curve” value came to 538 in experiment [1], 528 in experiment [2] and 552 in experiment [3].
